# Data as given in patent publication US20100137346A1, “DESFE[…] ACTINIDE DEC[…]” (priority 2006, published 2010).
# Read-outs that look alike come from different tables or passages of the source.
# Legend:
# [1] = rats, same dose; cited from earlier work
# [2] = cited from earlier work; for iron-clearing activity, in words: C. apella model
# [3] = in vivo; cited from earlier work
# [4] = Chelator accumulation in lung tissue; type: in vivo, rodents; conditions: SC 300 μmol/kg, 0.5 h post drug
# Description: Chelator Access to Lung Tissue. As inhalation is one of the principal routes of potential actinide contamination, in a preliminary study aimed at this proposal, the accumulation of two different DFT analogues in lung tissue, (S)-4′-(HO)-DADMDFT (9, FIG. 1) and (S)-3′,4′-(CH3O)-DADMDFT, 19, Table 2)] was investigated. Rodents were given the drugs SC at a dose of 300 μmol/kg. The latter chelator is far more lipophilic than the former. The more lipophilic chelator (19) achieved a concentration of 290±66 nmol/g wet weight 0.5 h post drug. The level of the less lipophilic ligand (9) was much lower, 80±9 nmol/g wet weight 0.5 h post drug. This is consistent with the idea that organ targeting can be achieved,[Bergeron, et al., Impact of the Lipophilicity of Desferrithiocin Analogues on Iron Clearance, Medicinal Inorganic Chemistry 2005; 366-383] corroborating previous studies and further contributing to the index of success of the invention.
# [5] = Chelator-induced uranium excretion (urine + bile, 24 h) in bile duct-cannulated rat model; type: in vivo
# Experimental: (§1) Desferrithiocin Analogue Induced Excretion of Uranium. In order to compare results with previous chelator-induced iron excretion data, the uranium clearance studies were carried out in a bile duct-cannulated rat model. The animals were given uranyl acetate dihydrate SC at a dose of 5 mg/kg (the actual dose of uranium is 2.8 mg/kg). Bile and urine samples were collected for 24 hours after dosing. Kidneys were removed from selected animals and tissue uranium concentration measured. At least three animals were utilized in each experimental group. Data from two separate control studies (uranyl acetate/ no chelator) have now been combined for a total of 14 control animals. All uranium concentrations were measured using ICPMS. The data are reported as the total quantity of uranium excreted [urine +bile]; the mode of excretion [urine/bile] is also given. In addition the percentage of the administered dose of uranium cleared and chelator-induced uranium excretion vs the controls is also given. Four positive controls were evaluated: DTPA (13, Table 1) given as its trisodium calcium salt, DFO (14), N,N′-bis(2hydroxybenzyl)ethylenediamine-N,N′-diacetic acid, monosodium salt (NaHBED, 15) and the hydroxypyridone CP94 (16) shown to bind uranium [Pashalidis, et al., Effective complex formation in the interaction of 1,2-dimethyl-3-hydroxypyrid-4-one (Deferiprone or L1) with uranium(VI), Journal of Radioanalytical and Nuclear Chemistry 1999; 242:181-184.] The total metal cleared after 24 h in control rats was 10% of the administered dose. When DTPA, 13, was given IP or PO at 300 μmol/kg immediately after uranium, the excretion was 17% and 8% of the administered dose respectively (p>0.05). However, when the drug was given IP at a dose of 600 μmol/kg immediately post-metal, the uranium excretion was significant, 20% (p<0.005). This is consistent with previously published data using a similar animal model.[Domingo, et al., Comparative effects of the chelators sodium 4,5-dihydroxybenzene-1,3-disulfonate (Tiron) and diethylenetriaminepentaacetic acid (DTPA) on acute uranium nephrotoxicity in rats, Toxicology 1997; 118:49-59] DFO (14) and CP94 (16) given IP immediately post uranyl acetate were ineffective.
# Desferrithiocin Analogue-Induced Excretion of Uranium. In order to compare results with previous chelator-induced iron excretion data, the uranium clearance studies were carried out in a bile duct-cannulated rat model. The animals were given uranyl acetate dihydrate SC at a dose of 5 mg/kg (the actual dose of uranium is 2.8 mg/kg). Bile and urine samples were collected for 24 hours after dosing. Kidneys were removed from selected animals and tissue uranium concentration measured. At least three animals were utilized in each experimental group. Data from two separate control studies (uranyl acetate/ no chelator) are combined for a total of 14 control animals. All uranium concentrations were measured using ICPMS. The data are reported as the total quantity of uranium excreted [urine +bile]; the mode of excretion [urine/bile] is also given. In addition the percentage of the administered dose of uranium cleared and chelator-induced uranium excretion vs the controls is also given. Four positive controls were evaluated: DTPA (1, Table 1) given as its trisodium calcium salt, DFO (2), N,N -bis(2-hydroxybenzyl)ethylenediamine-N,N-diacetic acid, monosodium salt (NaHBED, 3) and the hydroxypyridone CP94 (4) shown to bind uranium. The total metal cleared after 24 h in control rats was 10% of the administered dose. When DTPA, 1, was given IP or PO at 300 μmol/kg immediately after uranium, the excretion was 17% and 8% of the administered dose respectively (p>0.05). However, when the drug was given IP at a dose of 600 μmol/kg immediately post metal, the uranium excretion was significant, 20% (p<0.005). This is consistent with previously published data using a similar animal model.^2 DFO (2) and CP94 (4) given IP immediately post uranyl acetate were ineffective.
# [6] = in vivo; cited from earlier work; remark: listed apart in the source
# [7] = Renal uranium content in uranyl acetate-treated bile duct-cannulated rats (FIG. 3); type: in vivo, rat
# Experimental: as §1
# The most promising analogue in the (S)-2-(2,4-dihydroxyphenyl)-4,5-dihydro-4-thiazolinecarboxylic series is the methoxy analogue (S)-4′-(CH3O)-DADMDFT (11). Given IP at 300 μmol/kg 0.5 h before uranyl acetate or immediately thereafter, nearly 30% of the metal was cleared (Table 1). This was also true if the drug was given IP 0.5 or 2 h post metal. The drug retains some efficacy given 4 h post uranium; 16% of the metal is excreted (p<0.006). When the chelator was given SC immediately post uranium, 40% of the administered metal was cleared. The increased excretion is probably associated with a slower absorption of the ligand. The data from rodents given the drug orally is even more encouraging (Table 1). […] The most profound data are associated with uranium decorporation from the kidneys (FIG. 3). When DTPA is given IP or PO at a dose of 300 μmol/kg immediately post metal, there is no reduction in renal uranium relative to controls. However, (S)-4′-(CH3O)-DADMDFT (11) given orally at a dose of 300 μmol/kg immediately post metal reduces renal uranium by 37% (p<0.005).
# There is a small (16%) reduction when the drug is given PO at a dose of 300 μmol/kg 2 h post uranium. However, when 11 is given PO at a dose of 600 μmol/kg 0.5 h post metal, the renal uranium content is reduced by 76% (p<0.001). When given PO at the same dose 1 h post uranium exposure, the reduction is still significant, 42% (p<0.006). In all sets of ligands, the most lipophilic chelator is always the most toxic. […] On the basis of this finding, a less lipophilic, more water-soluble ligand than 12 was assembled, (S)-4′-(HO)-DADFT-PE (18, Table 1), a polyether analogue.
# [8] = iron-overloaded C. apella primate
# [9] = administered PO at a dose of 150 μmol/kg
structure (smiles),measurement,setting,value
"C[C@]1(C(=O)O)CSC(c2ccccc2O)=N1 [Compound 3, (S)-4,5-dihydro-2-(2-hydroxyphenyl)-4-methyl-4-thiazolecarboxylic acid]",outcome of planned 10-day dosing regimen,[1],dead by day 5
same,ICE,[2]; [8],13%
same,"toxicity, in words",[3],Severe gastrointestinal (GI) toxicity
"O=C(O)[C@H]1CSC(c2ccccc2O)=N1 [Compound 4, (S)-4,5-dihydro-2-(2-hydroxyphenyl)-4-thiazolecarboxylic acid]",outcome of planned 10-day dosing regimen,[1],dead by day 5
same,ICE,[2]; [9],12.4%
same,ICE,[2]; [8],12%
same,"toxicity, in words",[3],Severe gastrointestinal (GI) toxicity
"O=C(O)[C@H]1CSC(c2ccc(O)cc2O)=N1 [Compound 9, (S)-2(2,4-dihydroxyphenyl)-4,5-dihydro-4-thiazolecarboxylic acid]",outcome of planned 10-day dosing regimen,[1],did not display any frank toxicity
same,concentration in lung tissue,[4],80±9 nmol/g wet weight
same,"iron-clearing activity, in words",[2],compatible with iron clearance
same,ICE,[2]; [9],5.3%
"C[C@]1(C(=O)O)CSC(c2ccc(O)cc2O)=N1 [Compound 10, (S)-2-(2,4-dihydroxyphenyl)-4,5-dihydro-4-methyl-4-thiazolecarboxylic acid]",% of Administered Dose Cleared,[5]; 300 μmol/kg IP Immediate,19%
same,outcome of planned 10-day dosing regimen,[1],did not display any frank toxicity
same,"iron-clearing activity, in words",[2],compatible with iron clearance
same,ICE,[2]; given orally to the primates at an iron binding equivalent dose,13.4±5.8%
"COc1ccc(C2=N[C@@](C)(C(=O)O)CS2)c(O)c1 [Compound 12, (S)-4,5-dihydro2-(2-hydroxy-4-methoxyphenyl)4-methyl-4-thiazolecarboxylic acid]",% of Administered Dose Cleared,[5]; 300 μmol/kg IP Immediate,20%
same,"uranium excretion, in words","[5]; IP 300 μmol/kg, given 0.5 h post metal",within error of control
same,"iron-clearing efficiency, in words",[2]; in both rodents and primates,excellent iron-clearing efficiency
same,metabolite formed by metabolic O-demethylation,[6],(S)-4′-(HO)-DADFT (10)
same,"toxicity, in words",[3],too toxic for clinical consideration
"COc1ccc(C2=N[C@@H](C(=O)O)CS2)c(O)c1OC [Compound 19, (S)-4,5-dihydro-2(3,4-dimethoxy-2-hydroxyphenyl)-4-thiazolecarboxylic acid]",concentration in lung tissue,[4],290±66 nmol/g wet weight
"O=C(O)CN(CCN(CC(=O)O)CC(=O)O)CCN(CC(=O)O)CC(=O)O [DTPA, diethylenetriaminepentaacetic acid, reference compound]",% of Administered Dose Cleared,[5]; 300 μmol/kg IP Immediate,17%
same,% of Administered Dose Cleared,[5]; 300 μmol/kg PO Immediate,8%
same,% of Administered Dose Cleared,[5]; 600 μmol/kg IP Immediate,20%
same,reduction in renal uranium relative to controls,[7]; IP 300 μmol/kg immediately post metal,no reduction
same,reduction in renal uranium relative to controls,[7]; PO 300 μmol/kg immediately post metal,no reduction
